Measurements from publication PMC10178204, “Peptaibol Analogs Show Potent Antibacterial Activity against Multidrug Resistant Opportunistic Pathogens” (International Journal of Molecular Sciences, 2023).
≈ marks a conversion by molar mass, not a printed value. Where “and” joins values, the source holds several entries; their conditions need not be identical. Equal values may be shown once. Read-outs that look alike come from different tables or passages of the source. Non-standard residues stand in square brackets, D forms with d. Residues, ends and D or L forms follow the SMILES beside them. *: point of attachment. Leu(ol) = CC(C)C[C@H](N)CO; Octanoyl = CCCCCCCC(=O)*; Aib = CC(C)(N)C(=O)O

Tests used:
[1] = system: Acinetobacter baumannii ATCC 17978
Excerpt: (§1) The antibacterial activity of the peptides was initially assessed on a panel of representative Gram-positive and Gram-negative organisms of high clinical relevance and commonly responsible for bacterial infections in both animals and humans. Bacillus subtilis ATCC 6633 (Bsu) was also included as a rod-shaped model Gram-positive organism. This first panel comprised: Enterococcus faecalis ATCC 29212 (Efa); Streptococcus pyogenes ATCC 12344 (Spy); and Staphylococcus aureus ATCC 25923 (Sau); Gram-negative: Escherichia coli CCUGT (Eco), Klebsiella pneumoniae ATCC 13833 (Kpn), Acinetobacter baumannii ATCC 17978 (Aba), and Pseudomonas aeruginosa ATCC 27853 (Pae) (Table 2). Both the minimum inhibitory concentration (MIC, Table 2) and the minimum bactericidal concentration (MBC, Table S1, Supporting Material) were determined.
(§2) The minimum inhibitory concentration (MIC) and the minimum bactericidal concentration (MBC) of the compounds were determined in triplicate using Mueller–Hinton broth (MHB). […] Therefore, we decided to dissolve all peptides in DMSO to a final concentration of 25 mg/mL, for consistency. The bacteria inoculum was 5 × 10^5 CFU/mL, as recommended by CLSI (Document M07-A10, 2015). […] Reference-type strains, including representatives of both Gram-positive bacteria (Bacillus subtilis ATCC 6633, Enterococcus faecalis ATCC 29212, Staphylococcus aureus ATCC 25923, the methicillin-resistant Staphylococcus aureus ATCC 43300 (MRSA), Streptococcus pyogenes ATCC 12344) and Gram-negative bacteria (Escherichia coli CCUGT, Klebsiella pneumoniae ATCC 13833, Pseudomonas aeruginosa ATCC 27853, and Acinetobacter baumannii ATCC 17978), were acquired from ATCC or CCUG culture collections. Other antibiotic-resistant clinical isolates were present in our collection at the University Teaching Hospital (Azienda Ospedaliero-Universitaria Senese ‘Santa Maria alle Scotte’) in Siena, Tuscany, Italy. Specifically, MDR carbapenem-hydrolyzing class D β-lactamase-producing Acinetobacter baumannii and metallo-β-lactamase-producing Pseudomonas aeruginosa were used in this study (Table 4).

[2] = system: Bacillus subtilis ATCC 6633
Excerpt: as §1, §2

[3] = system: Enterococcus faecalis ATCC 29212
Excerpt: as §1, §2

[4] = system: Escherichia coli CCUGT; conditions: 18 h; for MIC Eco: MHB, 5 × 10^5 CFU/mL, 35 °C, triplicate
Excerpt: as §1, §2

[5] = system: Klebsiella pneumoniae ATCC 13833; conditions: for MIC Kpn: MHB, 5 × 10^5 CFU/mL, 18 h, 35 °C, triplicate
Excerpt: as §1, §2

[6] = system: Pseudomonas aeruginosa ATCC 27853; conditions: for MIC Pae: MHB, 5 × 10^5 CFU/mL, 18 h, 35 °C, triplicate
Excerpt: as §1, §2

[7] = system: Staphylococcus aureus ATCC 25923
Excerpt: as §1, §2

[8] = system: Streptococcus pyogenes ATCC 12344
Excerpt: as §1, §2

[9] = system: S. aureus ATCC 43300 (MRSA); conditions: MHB, 5 × 10^5 CFU/mL, 18 h, 35 °C, triplicate
Protocol: as §2

[10] = system: blood agar plate (Columbia CNA Agar); test: Hemolysis on blood agar plate; conditions: 35 ± 2 °C, 24 h; for Hemolysis (class): 50 μg peptide (2 μL of 25 mg/mL in DMSO) spotted on blood agar, visual, triplicate; for Hemolysis (d, diameter of hemolysis zone): 50 μg spotted on blood agar, average of triplicate
Protocol: Hemolysis zones were visually determined and measured. […] For two additional peptides (6 and 15), only a small hemolysis zone (diameter 4–5 mm) was visible, as compared to that of the positive control (Triton X-100, 13 mm).
Briefly, 2 μL of each peptide solution in DMSO (25 mg/mL), corresponding to 50 μg, was spotted on the surface of a blood agar plate (Columbia CNA Agar, Becton Dickinson Italia S.p.A., Florence, Italy). The plate was then incubated at 35 ± 2 °C for 24 h and visually inspected for the presence of hemolysis zones (see Figure S13, Supplementary Material). The experiment was performed in triplicate. Table 2 reports the average value of the diameter of hemolysis zones measured in each individual experiment. Triton X-100 was used as a positive control (diameter of the hemolysis zone: 13 mm), while DMSO was used as a negative control.
Figure S13. Implementation of the hemolysis test as described in Bechlars et al.. After spotting
2 µL (50 µg) of each compound at a random location on the blood agar plate and incubation at 35 ±
2 °C for 24 h, the plates were manually inspected for the presence of hemolysis zones. Triton X-100
and DMSO were used as the positive and negative controls, respectively. Results were interpreted
(1 picture or pasted object on this page, not shown here)

[11] = system: A. baumannii SI-12 (OXA-23); conditions: MHB, 5 × 10^5 CFU/mL, 18 h, 35 °C, triplicate
Protocol: as §2

[12] = system: A. baumannii SI-310 (OXA-24); conditions: colistin-resistant isolate; MHB, 5 × 10^5 CFU/mL, 18 h, 35 °C, triplicate
Protocol: as §2

[13] = system: A. baumannii SI-648 (OXA-23, OXA-51-like); conditions: MHB, 5 × 10^5 CFU/mL, 18 h, 35 °C, triplicate
Protocol: as §2

[14] = system: P. aeruginosa 101/1477 (IMP-1); conditions: MHB, 5 × 10^5 CFU/mL, 18 h, 35 °C, triplicate
Protocol: as §2

[15] = system: P. aeruginosa 506/99 (VIM-2); conditions: MHB, 5 × 10^5 CFU/mL, 18 h, 35 °C, triplicate
Protocol: as §2

[16] = system: P. aeruginosa VA-182/00 (VIM-2); conditions: MHB, 5 × 10^5 CFU/mL, 18 h, 35 °C, triplicate
Protocol: as §2

[17] = system: P. aeruginosa VR-143/97 (VIM-1); conditions: MHB, 5 × 10^5 CFU/mL, 18 h, 35 °C, triplicate
Protocol: as §2

[18] = MHB, 5 × 10^5 CFU/mL, 18 h, 35 °C, triplicate

Structure (SMILES) | MIC Aba [1, 18] | MBC Bsu [2, 18] | MIC Bsu [2, 18] | MBC Efa [3, 18] | MIC Efa [3, 18] | MIC Eco [4] | MIC Kpn [5] | MIC Pae [6] | MBC Sau [7, 18] | MIC Sau [7, 18] | MBC Spy [8, 18] | MIC Spy [8, 18] | MBC S. aureus ATCC 43300 (MRSA) [9] | MIC S. aureus ATCC 43300 (MRSA) [9] | Hemolysis (class) [10] | Hemolysis (d, diameter of hemolysis zone) [10] | other results
CCCCCCCC(=O)NC(C)(C)C(=O)NCC(=O)N[C@@H](CC(C)C)C(=O)NC(C)(C)C(=O)N[C@@H](CCCCN)C(=O)NC(C)(C)C(=O)N[C@@H](CC(C)C)C(=O)NC(C)(C)C(=O)NCC(=O)N[C@H](C(=O)N[C@H](CO)CC(C)C)[C@@H](C)CC [Peptide 6, 1-Oct-Aib-Gly-Leu-Aib-Lys-Aib-Leu-Aib-Gly-Ile-Lol] (Octanoyl-[Aib]GL[Aib]K[Aib]L[Aib]GI[Leu(ol)]) | > 128 µg/mL | 16 µg/mL (≈ 13.7 µM) | 8 µg/mL (≈ 6.86 µM) | 8 µg/mL (≈ 6.86 µM) | 8 µg/mL (≈ 6.86 µM) | > 128 µg/mL | > 128 µg/mL | > 128 µg/mL | 16 µg/mL (≈ 13.7 µM) | 8 µg/mL (≈ 6.86 µM) | 8 µg/mL (≈ 6.86 µM) | 8 µg/mL (≈ 6.86 µM) | 8 µg/mL (≈ 6.86 µM) | 4 µg/mL (≈ 3.43 µM) | + | 4 mm | 
CCCCCCCC(=O)NC(C)(C)C(=O)NCC(=O)N[C@@H](CC(C)C)C(=O)NC(C)(C)C(=O)NCC(=O)NCC(=O)N[C@@H](CC(C)C)C(=O)NC(C)(C)C(=O)N[C@@H](CCCCN)C(=O)N[C@H](C(=O)N[C@H](CO)CC(C)C)[C@@H](C)CC [Peptide 9, 1-Oct-Aib-Gly-Leu-Aib-Gly-Gly-Leu-Aib-Lys-Ile-Lol] (Octanoyl-[Aib]GL[Aib]GGL[Aib]KI[Leu(ol)]) |  | 16 µg/mL (≈ 14.1 µM) | 4 µg/mL (≈ 3.52 µM) | 4 µg/mL (≈ 3.52 µM) | 4 µg/mL (≈ 3.52 µM) | > 128 µg/mL | > 128 µg/mL | > 128 µg/mL | 16 µg/mL (≈ 14.1 µM) | 16 µg/mL (≈ 14.1 µM) | 32 µg/mL (≈ 28.1 µM) | 16 µg/mL (≈ 14.1 µM) | 8 µg/mL (≈ 7.03 µM) | 4 µg/mL (≈ 3.52 µM) | + | 10 mm | MBC Aba [1, 18]: 8 µg/mL (≈ 7.03 µM); MIC against A. baumannii, in molar units ([1]; corresponding to 2 and 8 μg/mL): 1.8 to 7.2 µM; MBC A. baumannii SI-12 (OXA-23) [11]: 32 µg/mL (≈ 28.1 µM); MIC A. baumannii SI-12 (OXA-23) [11]: 32 μg/mL and 32/32 μg/mL; MBC A. baumannii SI-310 (OXA-24) [12]: 32 µg/mL (≈ 28.1 µM); MIC A. baumannii SI-310 (OXA-24) [12]: 32 μg/mL and 32/32 μg/mL; MBC A. baumannii SI-648 (OXA-23, OXA-51-like) [13]: 32 µg/mL (≈ 28.1 µM); MIC A. baumannii SI-648 (OXA-23, OXA-51-like) [13]: 32 μg/mL and 32/32 μg/mL; MIC P. aeruginosa 101/1477 (IMP-1) [14]: > 128 µg/mL; MIC P. aeruginosa 506/99 (VIM-2) [15]: > 128 µg/mL; MIC P. aeruginosa VA-182/00 (VIM-2) [16]: > 128 µg/mL; MIC P. aeruginosa VR-143/97 (VIM-1) [17]: > 128 µg/mL
CCCCCCCC(=O)NC(C)(C)C(=O)N[C@@H](CCCCN)C(=O)N[C@@H](CC(C)C)C(=O)N[C@@H](CC(C)C)C(N)=O [Peptide 15, 1-Oct-Aib-Lys-Leu-Leu-NH2] (Octanoyl-[Aib]KLL-NH2) | 64 µg/mL (≈ 110 µM) |  | 16 µg/mL (≈ 27.5 µM) |  | 32 µg/mL (≈ 54.9 µM) | 64 µg/mL (≈ 110 µM) | 64 µg/mL (≈ 110 µM) | 64 µg/mL (≈ 110 µM) |  | 64 µg/mL (≈ 110 µM) |  | 16 µg/mL (≈ 27.5 µM) |  |  |  | 5 mm | MBC Aba ([1]; ATCC 17978, 18 h): 128 µg/mL (≈ 220 µM); MBC Bsu ([2]; ATCC 6633, 18 h): 32 µg/mL (≈ 54.9 µM); MBC Efa ([3]; ATCC 29212, 18 h): 32 µg/mL (≈ 54.9 µM); MBC Eco ([4]; CCUGT): > 128 µg/mL; MBC Kpn ([5]; ATCC 13833, 18 h): > 128 µg/mL; MBC Pae ([6]; ATCC 27853, 18 h): > 128 µg/mL; MBC Sau ([7]; ATCC 25923, 18 h): > 128 µg/mL; MBC Spy ([8]; ATCC 12344, 18 h): 16 µg/mL (≈ 27.5 µM)
